Values belong to the compound of their own block, whether it stands above or below them.
What was measured:
LSD1 = target: T1, LSD1 (Homo sapiens, UniProt O60341); test: LSD1 activity (LSD1 IC50, Table 7, FIG. 2); type: cell-based
T1 construct: LSD1 activity determined in a cell-based assay as described herein; endogenous in cells
Experimental: For a typical deacetylation assay, 1 μg rHDAC1 or 1 μg immunoprecipitated endogenous HDAC1-protein A complexes (from two 10-cm dishes) was incubated with 0.4 μg H4K16ac peptide in the presence or absence of 50 μM CBB1007 or 2 μM MS-275 at 30° C. for 1 h. The percentages of deacetylated products were analyzed by mass spectrometry, and the data were analyzed by GraphPad Prism (version 5) software. The reaction products were analyzed by mass spectrometry to separate the peptide substrate (H4K16ac) and the product (H4K16), as previously described (Wang, J., et al. (2011) Cancer Research 71, 7238-7249). For a typical demethylation assay, 0.4 μg H3K4me2 substrate peptide was incubated individually with 1 μg recombinant LSD1 (rLSD1) or 1 μg immunoprecipitated LSD1-protein A complex in the presence or absence of 50 μM CBB1007 or 2 μM MS-275 at 30° C. for 1 h. The reaction products were analyzed by mass spectrometry to separate the products (H3K4me1 and H3K4) from the substrate (H3K4me2), as previously described (Wang, J., et al. (2011) Cancer Research 71, 7238-7249).
Table 7 below lists specific compounds and LSD1 activity determined in a cell-based assay as described herein (see also FIGS. 2A and 2B).

acetylated H4K16 = test: H4K16 acetylation in HeLa cells (Western blotting); type: cell-based, human; details: VPA 1 μM or MS-275 2 μM 24 h, TSA 40 nM 16 h
Experimental: Referring to FIG. 31B, the acetylation of H4K16 is sensitive to pan-HDAC inhibitors in HeLa cells. F9 and HeLa cells were treated with the HDAC inhibitor VPA (1 μM) or MS-275 (2 μM) for 24 h or TSA (40 nM) for 16 h. Methylated and acetylated histones H3 and H4 were blotted by specific antibodies, as indicated, and quantified by the use of Gel-Pro Analyzer (version 4.0) software.

[1] = tested on: histone H3 and H4 methylation and acetylation; test: Histone modifications in F9 cells (Western blotting); type: cell-based, mouse
Experimental: To quantify and compare the protein band densities in the Western blots shown in the figures, a titration by serial dilution of the siRNA protein samples for mES cell lysates was used as a reference. The concentration of titration samples was measured by use of a NanoDrop 2000 apparatus, and the protein concentration of all titration samples was adjusted to 1 μg/μL. The protein samples were loaded onto an SDS-polyacrylamide gel at levels ranging from 1 μg to 13 μg at 2-μg intervals and immune blotted with each antibody, including anti-LSD1, anti-HDAC1, and anti-histone H3 antibodies, with three independent loadings. The Western blots were developed with exposure times ranging from 30 s to 1 min. The exposure density of each band was scanned by Adobe Photoshop Elements (version 4.0) software using a CanonScan 8600F scanner (Canon, Calif.) and was subsequently quantified by use of the area density tool of Gel-Pro Analyzer (version 4.0) software (Media Cybernetics, Inc.) and plotted. The regression analysis of each signal was performed by use of the Microsoft Excel program's Analysis Tool Pak regression option. […] The amount of the protein band in the Western blot shown in the figures was quantified by scanning, as described for the reference titration. […] The quantity of protein band densities between two protein samples was externally corrected by use of the reference plots. […] The statistical differences between the experimental and control groups were analyzed by one-way analysis of variance (ANOVA). […]
Referring to FIG. 28D, time course analyses of the effects of 50 μM LSD1 inhibitor CBB1007 on histone modifications in F9 cells are shown, but with a shorter time course than above. The mean density of each band was quantified by the use of Gel-Pro Analyzer (version 4.0) software, and error bars represent SEMs for duplicate samples. […] The statistical differences were analyzed by one-way ANOVA. *, P_0.05; **, P_0.01. […]

[2] = target: T2, LSD1-CoREST-HDAC1 complex (Homo sapiens, UniProt O60341+Q13547); test: Reconstituted LSD1-CoREST-HDAC1 complex on oligonucleosomes; type: biochemical; details: 50 μM CBB1007 or 2 μM MS-275
T2 construct: Human LSD1 and HDAC1 full-length cDNAs were obtained from Open Biosystems; GST (N, cleaved yes); made in house; host or cells: Escherichia coli BL21
Experimental: For the reconstitution reaction, recombinant GST-CoREST, His-LSD1, and recombinant HDAC1 (rHDAC1) (GST was removed by the use of PreScission protease) (10 μg) were assembled into the LSD1-CoREST-HDAC1 complex and then pulled down by GSTSepharose resins. Protein A-Sepharose was used as a negative-control resin.
Briefly, cells (1×10^6) were washed twice with ice-cold hypotonic buffer (20 mM potassium-HEPES, pH 7.8, 5 mM potassium acetate, 0.5 mM MgCl2, 0.5 mM DTT), swelled, and disrupted with 25 strokes in a Dounce homogenizer using a tightfitting pestle. Nuclei were pelleted at 4,000 rpm for 5 min and resuspended in buffer A (20 mM HEPES, pH 7.9, 1.5 mM magnesium acetate, 50 mM potassium acetate, 10% glycerol, 0.5 mM DTT, 150 mM NaCl, protease and phosphatase inhibitors). […] The chromatin pellet was resuspended in 0.5 mL buffer B (0.32 M sucrose, 50 mM Tris-HCl, pH 7.5, 4 mM MgCl2, 1 mM CaCl2, 0.1 mM phenylmethylsulfonyl fluoride) and incubated with 30 units of micrococcal nuclease for 10 min at 37° C. The digested samples were centrifuged at 8,000×g for 10 min, and the supernatant, which contained oligonucleosomes, was recovered.
The reaction products (demethylated or deacetylated histones) were analyzed by Western blotting.

LSD1-protein A complex = target: T3, LSD1-protein A complex (Mus musculus, UniProt Q6ZQ88); test: In vitro demethylation assay, immunoaffinity-purified LSD1-protein A complex from F9 cells; type: biochemical
T3 construct: recombinant and endogenous LSD1 complexes isolated from F9 cells; endogenous in cells; host or cells: F9 mouse teratocarcinoma cells, anti-LSD1 immunoprecipitate on protein A-Sepharose

HDAC1-protein A complex = target: T4, HDAC1-protein A complex (Mus musculus, UniProt O09106); test: In vitro deacetylation assay, immunoaffinity-purified HDAC1-protein A complex from F9 cells; type: biochemical
T4 construct: 1 μg immunoprecipitated endogenous HDAC1-protein A complexes; endogenous in cells; host or cells: F9 mouse teratocarcinoma cells, anti-HDAC1 immunoprecipitate on protein A-Sepharose

[3] = target: T5, recombinant LSD1 (GST-LSD1) (Homo sapiens, UniProt O60341); test: In vitro demethylation assay, recombinant LSD1, H3K4me2 peptide; type: biochemical; details: H3K4me2 peptide, LSD1 and HDAC1 without CoREST
T5 construct: Human LSD1 and HDAC1 full-length cDNAs were obtained from Open Biosystems; GST (N, cleaved yes); made in house; host or cells: Escherichia coli BL21
Description: H3K4me2 and H4K16ac were purchased from AnaSpec and Shanghai Science Peptide Biological Technology Co., Ltd., respectively. Human LSD1 and HDAC1 full-length cDNAs were obtained from Open Biosystems. Human CoREST cDNA was amplified by reverse transcription-PCR (RT-PCR) using mRNA isolated from HeLa cells. These cDNAs were fully sequenced and cloned into the pGEX-KG or pET28a vector and expressed as the glutathione S-transferase (GST)- or His-tagged fusion proteins in the Escherichia coli BL21 strain and affinity purified with glutathione or Ni-Sepharose (GE Healthcare, United Kingdom) resin. […]
For a typical deacetylation assay, 1 μg rHDAC1 or 1 μg immunoprecipitated endogenous HDAC1-protein A complexes (from two 10-cm dishes) was incubated with 0.4 μg H4K16ac peptide in the presence or absence of 50 μM CBB1007 or 2 μM MS-275 at 30° C. for 1 h. The percentages of deacetylated products were analyzed by mass spectrometry, and the data were analyzed by GraphPad Prism (version 5) software. The reaction products were analyzed by mass spectrometry to separate the peptide substrate (H4K16ac) and the product (H4K16), as previously described (Wang, J., et al. (2011) Cancer Research 71, 7238-7249). […]

[4] = target: T6, recombinant HDAC1 (GST-HDAC1) (Homo sapiens, UniProt Q13547); test: In vitro deacetylation assay, recombinant HDAC1, H4K16ac peptide; type: biochemical; details: 50 μM CBB1007 or 2 μM MS-275
T6 construct: Human LSD1 and HDAC1 full-length cDNAs were obtained from Open Biosystems; GST (N, cleaved yes); made in house; host or cells: Escherichia coli BL21
Description: Human LSD1 and HDAC1 full-length cDNAs were obtained from Open Biosystems. […] These cDNAs were fully sequenced and cloned into the pGEX-KG or pET28a vector and expressed as the glutathione S-transferase (GST)- or His-tagged fusion proteins in the Escherichia coli BL21 strain and affinity purified with glutathione or Ni-Sepharose (GE Healthcare, United Kingdom) resin. […] The GST tag and uncut GST-HDAC1/GST-LSD1 proteins were depleted by glutathione-Sepharose. For the reconstitution reaction, recombinant GST-CoREST, His-LSD1, and recombinant HDAC1 (rHDAC1) (GST was removed by the use of PreScission protease) (10 μg) were assembled into the LSD1-CoREST-HDAC1 complex and then pulled down by GSTSepharose resins. Protein A-Sepharose was used as a negative-control resin.

H1437 cells = test: Cell cycle analysis by FACS in H1437 cells; type: cell-based, human; details: 50 nM siRNA
Experimental: (§1) The fluorescence-activated cell sorting (FACS) and 3-(4,5-dimethyl-2-thiazolyl)-2,5-diphenyl-2H-tetrazolium bromide (MTT) assays were conducted as described previously (Lan, R., et al. (2012) Lab. Invest. 92, 1503-1514). To synchronize PA-1 and F9 cells at the G1/S phase transition, cells were treated with 2.5 mM thymidine for 12 h, released into fresh medium for 6 h, and blocked again with 2.5 mM thymidine for an additional 12 h. The cell cycle arrest was analyzed by FACS. For differentiation, F9 and PA-1 cells were seeded in 6-well plates at a density of 1×10^4 cells per well and supplemented with 5 μM RA for 3 days. Cells were then recultured in fresh medium without RA for another 2 days, and the cell cycle was analyzed on a BD FACSCalibur cell sorter using the CellQuest program (Becton, Dickinson, Mountain View, Calif.). The percentages of cells in G1, S, and G2/M phases were determined by the use of ModFit LT software.
(§2) Referring to FIG. 9C, Sox2-expressing A549, IGROV1, T47D and Sox2-negative H1437 cells were transfected with 50 nM luciferase (Luc) or LSD1 specific siRNAs for 60 hours and the cell cycle was analyzed by flow-cytometry (FACS).
(§3) Referring to FIG. 17A, Sox2-expressing A549, IGROV1, and T47D and Sox2-negative H1437 cells were transfected with luciferase and Sox2 specific siRNAs for 48 hours. The cell cycles of these cells after Sox2 ablation were analyzed by flow-cytometry.

T47D cells = test: Cell cycle analysis by FACS in T47D cells; type: cell-based, human; details: 50 nM siRNA
Experimental: as §1, §2, §3

A549 cells = test: Cell cycle analysis by FACS in A549 cells; type: cell-based, human; details: 50 nM siRNA
Experimental: as §1, §2, §3

IGROV1 cells = test: Cell cycle analysis by FACS in IGROV1 cells; type: cell-based, human; details: 50 nM siRNA
Experimental: as §1, §2, §3

T6 sequence (Q13547 whole entry): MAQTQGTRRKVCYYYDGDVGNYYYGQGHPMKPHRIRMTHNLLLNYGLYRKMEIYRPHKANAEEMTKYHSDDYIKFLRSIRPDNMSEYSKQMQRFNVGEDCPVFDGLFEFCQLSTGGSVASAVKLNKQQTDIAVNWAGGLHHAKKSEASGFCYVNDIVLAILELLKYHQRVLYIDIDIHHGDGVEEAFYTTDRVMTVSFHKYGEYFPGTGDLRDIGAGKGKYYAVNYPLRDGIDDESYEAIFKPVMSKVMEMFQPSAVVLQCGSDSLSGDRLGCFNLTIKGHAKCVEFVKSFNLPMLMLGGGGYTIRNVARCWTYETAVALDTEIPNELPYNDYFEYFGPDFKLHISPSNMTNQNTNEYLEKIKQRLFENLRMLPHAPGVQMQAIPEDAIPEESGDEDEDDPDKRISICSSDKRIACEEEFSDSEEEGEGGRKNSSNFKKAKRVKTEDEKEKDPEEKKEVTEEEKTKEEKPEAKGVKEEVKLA

IC50 (LSD1): 31.4 µM
Compound: CN1CCN(CCN[C@@H]2C[C@H]2c2ccc(OCc3ccccc3)cc2)CC1 [Compound 2]

Compound: N[C@@H]1C[C@H]1c1ccc(OCc2ccccc2)cc1 [Compound 3]
IC50 (LSD1): 39.4 µM

Compound: Nc1ccccc1NC(=O)c1ccc(CNC(=O)OCc2cccnc2)cc1 [MS-275]
acetylated H4K16 level (acetylated H4K16): induced the accumulation of acetylated H4K16
H4K16 acetylation of oligonucleosomes from treated cells [1]: hyperacetylated on H4K16
HDAC1 deacetylase activity in the reconstituted complex [2]: blocking the HDAC1 activity
LSD1 demethylase activity in the reconstituted complex [2]: partially inhibit the LSD1 demethylase activity
demethylation activity of immunoaffinity-purified LSD1 (LSD1-protein A) (LSD1-protein A complex): blocked the demethylation activity
deacetylase activity of immunoaffinity-purified HDAC1 (HDAC1-protein A) (HDAC1-protein A complex): sensitive
LSD1 activity in the absence of CoREST [3]: not sensitive
deacetylase activity of recombinant HDAC1 [4]: inhibited

Compound: CC(/C=C/C(=O)NO)=C\[C@@H](C)C(=O)c1ccc(N(C)C)cc1 [TSA, trichostatin A]
acetylated H4K16 level (acetylated H4K16): induced the accumulation of acetylated H4K16

Compound: CCCC(CCC)C(=O)O [VPA, valproic acid]
acetylated H4K16 level (acetylated H4K16): induced the accumulation of acetylated H4K16

Compound: LSD1 siRNA: siRNA, human LSD1: GGAAGAAGAUAGUGAAAAC (SEQ ID NO:1) (listed as RNA, chemistry not given here)
cell cycle population G0/G1 (H1437 cells): 37.28%
cell cycle population G2/M (H1437 cells): 37.75%
cell cycle population S (H1437 cells): 24.97%
cell cycle population G0/G1 (T47D cells): 76.34%
cell cycle population G2/M (T47D cells): 12.17%
cell cycle population S (T47D cells): 11.49%
cell cycle population G0/G1 (A549 cells): 74.81%
cell cycle population G2/M (A549 cells): 0.65%
cell cycle population S (A549 cells): 24.55%
cell cycle population G0/G1 (IGROV1 cells): 78.07%
cell cycle population G2/M (IGROV1 cells): 8.56%
cell cycle population S (IGROV1 cells): 13.37%

Compound: Sox2 siRNA: siRNA, human Sox2: CGCUCAUGAAGAAGGAUAA (SEQ ID NO:2) (listed as RNA, chemistry not given here)
cell cycle population G0/G1 (H1437 cells): 39.39%
cell cycle population G2/M (H1437 cells): 35.51%
cell cycle population S (H1437 cells): 25.10%
cell cycle population G0/G1 (T47D cells): 74.65%
cell cycle population G2/M (T47D cells): 10.86%
cell cycle population S (T47D cells): 14.48%
cell cycle population G0/G1 (A549 cells): 76.40%
cell cycle population G2/M (A549 cells): 0.19%
cell cycle population S (A549 cells): 23.41%
cell cycle population G0/G1 (IGROV1 cells): 74.62%
cell cycle population G2/M (IGROV1 cells): 12.52%
cell cycle population S (IGROV1 cells): 12.87%
